Reference: patent US20030186817A1, “SUBSTITUTED 2,4-DIAMINO-1,3,5-TRIAZINES, PROCESSES FOR THEIR PREPARATION AND THEIR USE AS HERBICIDES AND PLANT GROWTH REGULATORS” (priority 1998, published 2003)

Assays:
Format in all cases: in vivo
[1] = tested on: Cyperus iria and Echinocloa crus-galli; test: Action on weeds in rice (paddy rice conditions, visual rating); details: dammed height of water 2-3 cm, about three weeks after application; note: test concentration or dose not given here
Excerpt: Typical rice weeds such as Echinocloa crus galli and Cyperus iria are cultivated in a greenhouse under paddy rice conditions ([…] height of water: 2-3 cm). After the treatment, the test plants are set up in a greenhouse under optimum growth conditions and are maintained in this way under these conditions throughout the test period. About three weeks after application, evaluation is made by visual rating of the damage to the plants by comparison with untreated controls.

[2] = tested on: Stellaria media, Amaranthus retroflexus, Sinapis avreuse, Avena fatura, Lolium multiflorum and Setaria viridis; test: Post-emergence action against weeds (greenhouse pot test, visual rating); details: three-leaf stage, application rate of 3.0 kg or less of active substance per hectare, 3 to 4 weeks in greenhouse
Method: Seeds of mono- and dicotyledonous weeds are placed in sandy loam soil in cardboard pots, covered with soil and cultivated in a greenhouse under good growth conditions. Two to three weeks after sowing, the test plants are treated at the three-leaf stage. The novel compounds, formulated as wettable powders or emulsion concentrates, are sprayed in various dosages onto the green parts of the plant at an application rate of from 600 to 8001 of water/ha (converted), and, after the test plants have remained in the greenhouse for 3 to 4 weeks under optimum growth conditions, the action of the preparations is rated visually by comparison with untreated controls. The novel compositions also have good post-emergence herbicidal activity against a broad spectrum of economically important weed grasses and broad-leaved weeds.

[3] = tested on: Stellaria media, Amaranthus retroflexus, Sinapis avreuse, Avena fatura, Lolium multiflorum and Setaria viridis; test: Pre-emergence action against weeds (greenhouse pot test, visual rating); details: application rate of 3.0 kg or less of active substance per hectare, trial period of 3 to 4 weeks
Excerpt: Seeds of mono- and dicotyledonous weed plants are placed in sandy loam soil in cardboard pots and covered with soil. The novel compounds, formulated as wettable powders or emulsion concentrates, are then applied to the surface of the soil cover in the form of an aqueous suspension or emulsion at an application rate of from 600 to 800 l of water/ha (converted), in various dosages. After the treatment, the pots are placed in a greenhouse and kept under good growth conditions for the weeds. After the test plants have emerged after a trial period of 3 to 4 weeks, the damage to the plants or the negative effect on emergence is rated visually by comparison with untreated controls. As shown by the test results, the novel compounds have good herbicidal pre-emergence activity against a broad spectrum of weed grasses and broad-leaved weeds.

Structure (SMILES)	herbicidal activity against rice weeds (visual rating of damage) [1]	herbicidal activity post-emergence (rated visually) [2]	herbicidal activity pre-emergence (damage to the plants or negative effect on emergence, rated visually) [3]
CCC(CCOc1ccccc1)Nc1nc(N)nc(C(C)C)n1 (stereo not drawn) [Example 231]	very good herbicidal activity	good and in most cases very good herbicidal activity	good and in most cases very good herbicidal activity
CCC(CCOc1cccc(C)c1)Nc1nc(N)nc(C(C)(C)F)n1 (stereo not drawn) [Example 245]	very good herbicidal activity	good and in most cases very good herbicidal activity	good and in most cases very good herbicidal activity
Cc1cccc(OCCC(C)Nc2nc(N)nc(C(C)(C)F)n2)c1 (stereo not drawn) [Example 253]	very good herbicidal activity	good and in most cases very good herbicidal activity	good and in most cases very good herbicidal activity
CC(CCOc1cc(F)cc(F)c1)Nc1nc(N)nc(C(C)C)n1 (stereo not drawn) [Example 281]	very good herbicidal activity	good and in most cases very good herbicidal activity	good and in most cases very good herbicidal activity
CC(CCOc1cccc(Cl)c1)Nc1nc(N)nc(C(C)(C)F)n1 (stereo not drawn) [Example 299]	very good herbicidal activity	good and in most cases very good herbicidal activity	good and in most cases very good herbicidal activity
COc1cccc(OCCC(C)Nc2nc(N)nc(C(C)(C)F)n2)c1 (stereo not drawn) [Example 303]	very good herbicidal activity	good and in most cases very good herbicidal activity	good and in most cases very good herbicidal activity
CC(CCOc1cccc(F)c1)Nc1nc(N)nc(C(C)(C)F)n1 (stereo not drawn) [Example 308]	very good herbicidal activity	good and in most cases very good herbicidal activity	good and in most cases very good herbicidal activity
COc1cccc(OCCC(C)Nc2nc(N)nc(C(F)(F)C(F)F)n2)c1 (stereo not drawn) [Example 311]	very good herbicidal activity	good and in most cases very good herbicidal activity	good and in most cases very good herbicidal activity
Cc1cccc(OCCC(C)Nc2nc(N)nc(C(F)(F)C(F)F)n2)c1 (stereo not drawn) [Example 326]	very good herbicidal activity	good and in most cases very good herbicidal activity	good and in most cases very good herbicidal activity
CC(CCOc1ccccc1)Nc1nc(N)nc(C(C)C)n1 (stereo not drawn) [Example 336]	very good herbicidal activity	good and in most cases very good herbicidal activity	good and in most cases very good herbicidal activity
CCC(CCOc1cc(C)cc(C)c1)Nc1nc(N)nc(C(C)C)n1 (stereo not drawn) [Example 340]	very good herbicidal activity	good and in most cases very good herbicidal activity	good and in most cases very good herbicidal activity
CCC(CCOc1cccc(Cl)c1)Nc1nc(N)nc(C(F)(F)C(F)F)n1 (stereo not drawn) [Example 347]	very good herbicidal activity	good and in most cases very good herbicidal activity	good and in most cases very good herbicidal activity
CCC(CCOc1cccc(C)c1)Nc1nc(N)nc(C(C)C)n1 (stereo not drawn) [Example 358]	very good herbicidal activity	good and in most cases very good herbicidal activity	good and in most cases very good herbicidal activity
CC(CCOc1ccccc1)Nc1nc(N)nc(C(C)(C)F)n1 (stereo not drawn) [Example 368, 2-amino-4-fluoroisopropyl-6-[N-(1-methyl-3-phenoxyprop-1-yl)amino]-1,3,5-triazine]	very good herbicidal activity	good and in most cases very good herbicidal activity	good and in most cases very good herbicidal activity
CCC(CCOc1ccccc1)Nc1nc(N)nc(C(C)(C)F)n1 (stereo not drawn) [Example 369]	very good herbicidal activity	good and in most cases very good herbicidal activity	good and in most cases very good herbicidal activity
CCC(CCOc1cc(F)cc(F)c1)Nc1nc(N)nc(C(C)(C)F)n1 (stereo not drawn) [Example 370]	very good herbicidal activity	good and in most cases very good herbicidal activity	good and in most cases very good herbicidal activity
CCC(CCOc1cccc(Cl)c1)Nc1nc(N)nc(C(C)C)n1 (stereo not drawn) [Example 372]	very good herbicidal activity	good and in most cases very good herbicidal activity	good and in most cases very good herbicidal activity
CCC(CCOc1cccc(OC)c1)Nc1nc(N)nc(C(C)C)n1 (stereo not drawn) [Example 376]	very good herbicidal activity	good and in most cases very good herbicidal activity	good and in most cases very good herbicidal activity
CCC(CCOc1cccc(Cl)c1)Nc1nc(N)nc(C(C)(C)F)n1 (stereo not drawn) [Example 380]	very good herbicidal activity	good and in most cases very good herbicidal activity	good and in most cases very good herbicidal activity
CCC(CCOc1cccc(F)c1)Nc1nc(N)nc(C(C)C)n1 (stereo not drawn) [Example 381]	very good herbicidal activity	good and in most cases very good herbicidal activity	good and in most cases very good herbicidal activity
CCC(CCOc1cccc(OC)c1)Nc1nc(N)nc(C(C)(C)F)n1 (stereo not drawn) [Example 384]	very good herbicidal activity	good and in most cases very good herbicidal activity	good and in most cases very good herbicidal activity
